Measurements: PMC5218480 (PLoS ONE, 2017)

Tested on: MV-4-11 cells
Assay: Gene expression microarray analysis (Affymetrix PrimeView) and GSEA
Assay type: cell-based, human
Parameters: RFU PODN (11730768_x_at) / Fold change /veh PODN (11730768_x_at) / RFU LINC00158 (11744669_a_at) / Fold change /veh LINC00158 (11744669_a_at) / RFU DUSP10 (11751237_a_at) / Fold change /veh DUSP10 (11751237_a_at) / RFU ID3 (11757404_x_at) / Fold change /veh ID3 (11757404_x_at) / RFU PLEKHG5 (11737974_s_at) / Fold change /veh PLEKHG5 (11737974_s_at) / RFU LRRC4B (11730491_at) / Fold change /veh LRRC4B (11730491_at) / RFU GIMAP4 (11747438_a_at) / Fold change /veh GIMAP4 (11747438_a_at) / RFU KRT8 (11758183_x_at) / Fold change /veh KRT8 (11758183_x_at) / RFU CNN1 (11734310_a_at) / Fold change /veh CNN1 (11734310_a_at) / RFU VPS37D (11726825_at) / Fold change /veh VPS37D (11726825_at) / RFU C10orf10 (11716522_x_at) / Fold change /veh C10orf10 (11716522_x_at) / RFU KIR2DL2 /// KIR2DL4 /// KIR2DL5A /// KIR2DL5B /// KIR2DS1 /// KIR2DS2 /// KIR2DS3 /// KIR2DS4 /// KIR3DL3 /// KIR3DL3 /// KIR3DS1 (11738374_at) / Fold change /veh KIR2DL2 /// KIR2DL4 /// KIR2DL5A /// KIR2DL5B /// KIR2DS1 /// KIR2DS2 /// KIR2DS3 /// KIR2DS4 /// KIR3DL3 /// KIR3DL3 /// KIR3DS1 (11738374_at) / RFU C1QL1 (11718748_at) / Fold change /veh C1QL1 (11718748_at) / RFU TMPRSS4 (11747572_a_at) / Fold change /veh TMPRSS4 (11747572_a_at) / RFU HAMP (11756126_x_at) / Fold change /veh HAMP (11756126_x_at) / RFU RNFT2 (11725882_a_at) / Fold change /veh RNFT2 (11725882_a_at) / RFU NR4A2 (11747474_a_at) / Fold change /veh NR4A2 (11747474_a_at) / RFU ABCC12 (11746883_a_at) / Fold change /veh ABCC12 (11746883_a_at) / RFU TMEM136 (11760407_x_at) / Fold change /veh TMEM136 (11760407_x_at) / RFU CLDN22 /// WWC2 (11732394_at) / Fold change /veh CLDN22 /// WWC2 (11732394_at) / RFU HLA-DPB1 (11760878_x_at) / Fold change /veh HLA-DPB1 (11760878_x_at) / RFU SPINT1 (11716480_a_at) / Fold change /veh SPINT1 (11716480_a_at) / RFU GAP43 (11754022_s_at) / Fold change /veh GAP43 (11754022_s_at) / RFU A4GNT (11735810_at) / Fold change /veh A4GNT (11735810_at) / RFU PRB3 (11715151_x_at) / Fold change /veh PRB3 (11715151_x_at) / RFU TUBB4B (11761932_at) / Fold change /veh TUBB4B (11761932_at) / RFU CAPN14 (11732068_a_at) / Fold change /veh CAPN14 (11732068_a_at) / RFU TMCC2 (11721928_a_at) / Fold change /veh TMCC2 (11721928_a_at) / RFU IRGQ (11745062_a_at) / Fold change /veh IRGQ (11745062_a_at) / RFU FAM174B (11720279_a_at) / Fold change /veh FAM174B (11720279_a_at) / RFU TMPRSS4 (11748680_a_at) / Fold change /veh TMPRSS4 (11748680_a_at) / RFU FAM212B (11763350_a_at) / Fold change /veh FAM212B (11763350_a_at) / RFU PLEKHG5 (11743358_a_at) / Fold change /veh PLEKHG5 (11743358_a_at) / RFU ZSCAN30 (11745921_a_at) / Fold change /veh ZSCAN30 (11745921_a_at) / RFU CMKLR1 (11741424_a_at) / Fold change /veh CMKLR1 (11741424_a_at) / RFU LOC101060620 /// MAPK8IP1 (11723275_at) / Fold change /veh LOC101060620 /// MAPK8IP1 (11723275_at) / RFU SPTSSB (11747773_x_at) / Fold change /veh SPTSSB (11747773_x_at) / RFU PRSS12 (11739890_at) / Fold change /veh PRSS12 (11739890_at) / RFU BIN1 (11741810_x_at) / Fold change /veh BIN1 (11741810_x_at) / RFU WNT11 (11732464_a_at) / Fold change /veh WNT11 (11732464_a_at) / RFU C10orf10 (11716521_a_at) / Fold change /veh C10orf10 (11716521_a_at) / RFU C5orf56 (11738089_at) / Fold change /veh C5orf56 (11738089_at) / RFU CYB561 (11721691_x_at) / Fold change /veh CYB561 (11721691_x_at) / RFU ANKRD19P (11752326_a_at) / Fold change /veh ANKRD19P (11752326_a_at) / RFU OR2T12 /// OR2T33 /// OR2T8 (11738714_s_at) / Fold change /veh OR2T12 /// OR2T33 /// OR2T8 (11738714_s_at) / RFU VCAN (11748164_a_at) / Fold change /veh VCAN (11748164_a_at) / RFU JSRP1 (11732532_at) / Fold change /veh JSRP1 (11732532_at) / RFU KRTAP10-11 (11738290_x_at) / Fold change /veh KRTAP10-11 (11738290_x_at) / RFU MYO3A (11730013_a_at) / Fold change /veh MYO3A (11730013_a_at) / RFU EBF3 (11725865_a_at) / Fold change /veh EBF3 (11725865_a_at) / RFU CAMK2N1 (11719241_x_at) / Fold change /veh CAMK2N1 (11719241_x_at) / RFU C5orf56 (11738088_a_at) / Fold change /veh C5orf56 (11738088_a_at) / RFU OLFML3 (11715873_a_at) / Fold change /veh OLFML3 (11715873_a_at) / RFU LOC100653217 /// NTM (11731650_a_at) / Fold change /veh LOC100653217 /// NTM (11731650_a_at) / RFU MAPK11 (11762145_a_at) / Fold change /veh MAPK11 (11762145_a_at) / RFU FIZ1 (11724087_x_at) / Fold change /veh FIZ1 (11724087_x_at) / RFU OASL (11726364_x_at) / Fold change /veh OASL (11726364_x_at) / RFU SOX15 (11748057_x_at) / Fold change /veh SOX15 (11748057_x_at) / RFU CD79A (11719716_a_at) / Fold change /veh CD79A (11719716_a_at) / RFU HIST1H1D (11736915_at) / Fold change /veh HIST1H1D (11736915_at) / RFU CASKIN2 (11723855_a_at) / Fold change /veh CASKIN2 (11723855_a_at) / RFU LOC730098 (11760151_x_at) / Fold change /veh LOC730098 (11760151_x_at) / RFU OR4N2 (11742367_at) / Fold change /veh OR4N2 (11742367_at) / RFU PRRT2 (11749266_a_at) / Fold change /veh PRRT2 (11749266_a_at) / RFU SNX32 (11753110_a_at) / Fold change /veh SNX32 (11753110_a_at) / RFU CDHR5 (11726645_a_at) / Fold change /veh CDHR5 (11726645_a_at) / RFU RCAN1 (11760418_a_at) / Fold change /veh RCAN1 (11760418_a_at) / RFU FAM167A (11723789_a_at) / Fold change /veh FAM167A (11723789_a_at) / RFU FAM26E (11764081_at) / Fold change /veh FAM26E (11764081_at) / RFU ISYNA1 (11749810_s_at) / Fold change /veh ISYNA1 (11749810_s_at) / RFU ACY1 (11761880_at) / Fold change /veh ACY1 (11761880_at) / RFU 11764098_at / Fold change /veh 11764098_at / RFU SAMD14 (11745864_x_at) / Fold change /veh SAMD14 (11745864_x_at) / RFU NPB (11741838_a_at) / Fold change /veh NPB (11741838_a_at) / RFU TMPRSS6 (11731388_a_at) / Fold change /veh TMPRSS6 (11731388_a_at) / RFU KRTAP10-2 (11738614_at) / Fold change /veh KRTAP10-2 (11738614_at) / RFU ARHGAP8 /// PRR5-ARHGAP8 (11727945_x_at) / Fold change /veh ARHGAP8 /// PRR5-ARHGAP8 (11727945_x_at) / RFU KRTAP5-7 /// NADSYN1 (11734609_at) / Fold change /veh KRTAP5-7 /// NADSYN1 (11734609_at) / RFU RASL12 (11751679_a_at) / Fold change /veh RASL12 (11751679_a_at) / RFU CDKN2B (11736163_a_at) / Fold change /veh CDKN2B (11736163_a_at) / RFU PRF1 (11729649_at) / Fold change /veh PRF1 (11729649_at) / RFU, ZNF638 /// ZNF638-IT1 / Fold change vs veh, ZNF638 /// ZNF638-IT1 / RFU, PANK3 / Fold change vs veh, PANK3 / RFU, SH3YL1 / Fold change vs veh, SH3YL1 / RFU, ZEB2 / Fold change vs veh, ZEB2 / RFU, NRIP1 / Fold change vs veh, NRIP1 / RFU, PTTG1IP / Fold change vs veh, PTTG1IP / RFU, CAPN2 / Fold change vs veh, CAPN2 / RFU, MED14 / Fold change vs veh, MED14 / RFU, SNORA58 / Fold change vs veh, SNORA58 / RFU, C1orf63 / Fold change vs veh, C1orf63 / RFU, LRRFIP1 / Fold change vs veh, LRRFIP1 / RFU, NDUFAF7 / Fold change vs veh, NDUFAF7 / RFU, SLC12A2 / Fold change vs veh, SLC12A2 / RFU, IBTK / Fold change vs veh, IBTK / RFU, ESF1 / Fold change vs veh, ESF1 / Fold change vs veh, TMEM50B / RFU, TAOK1 / Fold change vs veh, TAOK1 / RFU, ACBD3 / Fold change vs veh, ACBD3 / RFU, TMA16 / Fold change vs veh, TMA16 / RFU, RWDD3 / Fold change vs veh, RWDD3 / RFU, BCAT1 / Fold change vs veh, BCAT1 / RFU, EDEM3 / Fold change vs veh, EDEM3 / RFU, TMEM33 / Fold change vs veh, TMEM33 / RFU, WDR75 / Fold change vs veh, WDR75 / RFU, AHCTF1 / Fold change vs veh, AHCTF1 / RFU, TFRC / Fold change vs veh, TFRC / RFU, ZDHHC17 / Fold change vs veh, ZDHHC17 / RFU, NOM1 / Fold change vs veh, NOM1 / RFU, ARL8B / Fold change vs veh, ARL8B / RFU, ZBTB11 / Fold change vs veh, ZBTB11 / RFU, TAMM41 / Fold change vs veh, TAMM41 / RFU, KIAA1704 /// LOC100996395 / Fold change vs veh, KIAA1704 /// LOC100996395 / RFU, ING1 / Fold change vs veh, ING1 / RFU, TRMT61B / Fold change vs veh, TRMT61B / RFU, FUBP3 / Fold change vs veh, FUBP3 / RFU, TP53 / Fold change vs veh, TP53 / RFU, TNKS2 / Fold change vs veh, TNKS2 / RFU, ZFP14 / Fold change vs veh, ZFP14 / RFU, ACTR2 / Fold change vs veh, ACTR2 / RFU, PPP3R1 / Fold change vs veh, PPP3R1 / RFU, PIK3R1 / Fold change vs veh, PIK3R1 / RFU, HNRNPA1 / Fold change vs veh, HNRNPA1 / RFU, RNF170 / Fold change vs veh, RNF170 / RFU, ZNF28 / Fold change vs veh, ZNF28 / RFU, RNGTT / Fold change vs veh, RNGTT / RFU, OGT / Fold change vs veh, OGT / RFU, BRD1 / Fold change vs veh, BRD1 / RFU, MARS / Fold change vs veh, MARS / RFU, ZNF655 / Fold change vs veh, ZNF655 / RFU, FAHD1 / Fold change vs veh, FAHD1 / RFU, BDP1 / Fold change vs veh, BDP1 / RFU, LRRCC1 / Fold change vs veh, LRRCC1 / RFU, ARID1A / Fold change vs veh, ARID1A / RFU, ZNF146 / Fold change vs veh, ZNF146 / RFU, ZNF330 / Fold change vs veh, ZNF330 / RFU, GPN3 / Fold change vs veh, GPN3 / RFU, C9orf123 / Fold change vs veh, C9orf123 / RFU, N4BP2L2 / Fold change vs veh, N4BP2L2 / RFU, ARFIP1 / Fold change vs veh, ARFIP1 / RFU, FAM179B / Fold change vs veh, FAM179B / RFU, BCL10 / Fold change vs veh, BCL10 / RFU, UHRF1BP1L / Fold change vs veh, UHRF1BP1L / RFU, BET1 / Fold change vs veh, BET1 / RFU, CNOT2 / Fold change vs veh, CNOT2 / RFU, ZNF268 / Fold change vs veh, ZNF268 / Fold change vs veh, ZNF507 / RFU, DGCR2 / Fold change vs veh, DGCR2 / RFU, WDSUB1 / Fold change vs veh, WDSUB1 / Fold change vs veh, HSP90B1 /// MIR3652 / RFU, ADSS / Fold change vs veh, ADSS / RFU, GK / Fold change vs veh, GK / RFU, ZNF148 / Fold change vs veh, ZNF148 / RFU, TAF9 / Fold change vs veh, TAF9 / RFU, SLC1A5 / Fold change vs veh, SLC1A5 / RFU, SLMO2 / Fold change vs veh, SLMO2 / RFU, ABCC4 / Fold change vs veh, ABCC4 / RFU, LOC101060439 /// RAP1B / Fold change vs veh, LOC101060439 /// RAP1B / RFU, RFX7 / Fold change vs veh, RFX7 / RFU, GTPBP10 / Fold change vs veh, GTPBP10 / RFU, CNEP1R1 / Fold change vs veh, CNEP1R1 / RFU, BIVM-ERCC5 /// ERCC5 / Fold change vs veh, BIVM-ERCC5 /// ERCC5 / RFU, ILF3 / Fold change vs veh, ILF3 / RFU 11762660_at / Fold change /veh 11762660_at / RFU VCAN (11757783_s_at) / Fold change /veh VCAN (11757783_s_at) / RFU DDX43 (11728927_at) / Fold change /veh DDX43 (11728927_at) / RFU KRT8 (11758188_x_at) / Fold change /veh KRT8 (11758188_x_at) / RFU NKD1 (11759106_at) / Fold change /veh NKD1 (11759106_at) / RFU SRD5A1 (11742802_a_at) / Fold change /veh SRD5A1 (11742802_a_at) / RFU TPSAB1 /// TPSB2 (11721975_s_at) / Fold change /veh TPSAB1 /// TPSB2 (11721975_s_at) / RFU GSTM3 (11746129_a_at) / Fold change /veh GSTM3 (11746129_a_at) / RFU IL23R (11737362_x_at) / Fold change /veh IL23R (11737362_x_at) / RFU TMEM51 (11727254_a_at) / Fold change /veh TMEM51 (11727254_a_at) / RFU PIWIL2 (11732686_x_at) / Fold change /veh PIWIL2 (11732686_x_at) / RFU ORM1 (11744905_x_at) / Fold change /veh ORM1 (11744905_x_at) / RFU CCDC152 (11743942_at) / Fold change /veh CCDC152 (11743942_at) / RFU ECM1 (11717891_a_at) / Fold change /veh ECM1 (11717891_a_at) / RFU IL23R (11748794_a_at) / Fold change /veh IL23R (11748794_a_at) / RFU TNFAIP8L3 (11732012_x_at) / Fold change /veh TNFAIP8L3 (11732012_x_at) / RFU MBOAT4 (11741988_at) / Fold change /veh MBOAT4 (11741988_at) / RFU 11764193_at / Fold change /veh 11764193_at / RFU TMEM53 (11763286_at) / Fold change /veh TMEM53 (11763286_at) / RFU MAGEB2 (11727129_at) / Fold change /veh MAGEB2 (11727129_at) / RFU TMEM200A (11744735_a_at) / Fold change /veh TMEM200A (11744735_a_at) / RFU CCDC152 (11751479_a_at) / Fold change /veh CCDC152 (11751479_a_at) / RFU FAM211A (11726209_a_at) / Fold change /veh FAM211A (11726209_a_at) / RFU RGS16 (11746705_a_at) / Fold change /veh RGS16 (11746705_a_at) / RFU VCAN (11755009_s_at) / Fold change /veh VCAN (11755009_s_at) / RFU RHOB (11743442_s_at) / Fold change /veh RHOB (11743442_s_at) / RFU RGS16 (11720943_a_at) / Fold change /veh RGS16 (11720943_a_at) / RFU RGS16 (11720944_at) / Fold change /veh RGS16 (11720944_at) / RFU, VPS4B / Fold change vs veh, VPS4B / RFU, CREB1 / Fold change vs veh, CREB1 / RFU, DNAJC13 / Fold change vs veh, DNAJC13 / RFU, GNAQ / Fold change vs veh, GNAQ / RFU, CDK5R1 / Fold change vs veh, CDK5R1 / RFU, ZRANB3 / Fold change vs veh, ZRANB3 / RFU, CUL4A / Fold change vs veh, CUL4A / RFU, CCNY / Fold change vs veh, CCNY / RFU, UFL1 / Fold change vs veh, UFL1 / RFU, COG3 / Fold change vs veh, COG3 / RFU, DIAPH2 / Fold change vs veh, DIAPH2 / RFU, SKA2 / Fold change vs veh, SKA2 / RFU, AFF3 / Fold change vs veh, AFF3 / RFU, LMF1 / Fold change vs veh, LMF1 / RFU, IPO11 / Fold change vs veh, IPO11 / RFU, DFFB / Fold change vs veh, DFFB / RFU, FOXP1 / Fold change vs veh, FOXP1 / RFU, CARD8 / Fold change vs veh, CARD8 / RFU, STRN3 / Fold change vs veh, STRN3 / RFU, ADK / Fold change vs veh, ADK / RFU, RASSF2 / Fold change vs veh, RASSF2 / RFU, WIPF1 / Fold change vs veh, WIPF1 / RFU, LARP1B / Fold change vs veh, LARP1B / RFU, RASA1 / Fold change vs veh, RASA1 / RFU, RB1 / Fold change vs veh, RB1 / RFU, PPFIA1 / Fold change vs veh, PPFIA1 / RFU, MAT2A / Fold change vs veh, MAT2A / RFU, CCT5 / Fold change vs veh, CCT5 / RFU, WDR92 / Fold change vs veh, WDR92 / RFU, CUX1 / Fold change vs veh, CUX1 / RFU, TTC7A / Fold change vs veh, TTC7A / RFU, TMEM135 / Fold change vs veh, TMEM135 / RFU, DEPTOR / Fold change vs veh, DEPTOR / RFU, CPM / Fold change vs veh, CPM / RFU, DNAJB6 / Fold change vs veh, DNAJB6 / RFU, CACNA2D3 / Fold change vs veh, CACNA2D3 / RFU, DTX4 / Fold change vs veh, DTX4 / RFU, TFCP2 / Fold change vs veh, TFCP2 / RFU, GMCL1 /// GMCL1P1 / Fold change vs veh, GMCL1 /// GMCL1P1 / RFU, AEBP2 / Fold change vs veh, AEBP2 / RFU, SNHG1 /// SNORD22 /// SNORD25 /// SNORD26 /// SNORD27 /// SNORD28 /// SNORD29 /// SNORD31 / Fold change vs veh, SNHG1 /// SNORD22 /// SNORD25 /// SNORD26 /// SNORD27 /// SNORD28 /// SNORD29 /// SNORD31 / Fold change (Aza/veh), C12orf56 (ProbeSet 11735607_a_at) / Fold change (ACY-1035/veh), C12orf56 (ProbeSet 11735607_a_at) / Fold change (Aza/veh), FGFR1OP (ProbeSet 11751329_s_at) / Fold change (ACY-1035/veh), FGFR1OP (ProbeSet 11751329_s_at) / Fold change (Aza/veh), VPS36 (ProbeSet 11739960_a_at) / Fold change (ACY-1035/veh), VPS36 (ProbeSet 11739960_a_at) / RFU SYPL1 (11715823_x_at) / Fold change /veh SYPL1 (11715823_x_at) / RFU IGFBP7 (11715501_s_at) / Fold change /veh IGFBP7 (11715501_s_at) / RFU REEP3 (11722064_at) / Fold change /veh REEP3 (11722064_at) / RFU IGLL1 (11728026_x_at) / Fold change /veh IGLL1 (11728026_x_at): dose or concentration left out as unconfirmed
Settings: MV-4-11 cells, 48 hours

Question: Which “Fold change /veh MAGEB2 (11727129_at)” value does the source give for `Nc1ccc(-c2cccs2)cc1NC(=O)c1ccc2c(c1)cc(C1CC1)n2CCN1CCOCC1` [ACY-1035] here?
Answer: The value was 0.99.
